Laboratory results reported in DBAASP.
In brackets after ≈: the same amount, converted by molar mass. Several values for one entry are separate records, joined by “and”; a condition that tells them apart may be missing. Equal values may be shown once.

Tests used:
Experiment in all cases: ≥ marks a high value that may be exact or a test limit, other limits are often not marked, values filed in µg/mL are converted to µM
[1] = system: Escherichia coli ATCC 25922
[2] = system: Staphylococcus hominis M2973
Escherichia coli M5306 = system: Escherichia coli M5306
[3] = system: Klebsiella pneumoniae M13540
[4] = system: Enterococcus gallinarum M2723
[5] = system: Klebsiella pneumoniae M9491
[6] = system: Staphylococcus haemolyticus M2976
[7] = system: Enterococcus faecalis ATCC 29212
[8] = system: Enterococcus faecalis ATCC 51299
[9] = system: Staphylococcus saprophyticus M2981
Staphylococcus warneri = system: Staphylococcus warneri
[10] = system: Klebsiella pneumoniae PFAV 3
[11] = system: Staphylococcus aureus P204
[12] = system: Pseudomonas aeruginosa PACO12
[13] = system: Klebsiella pneumoniae M9170
[14] = system: Staphylococcus epidermidis M2921
[15] = system: Enterococcus faecalis M4899
Acinetobacter sp. M13523 = system: Acinetobacter sp. M13523
[16] = system: Enterococcus gallinarum M2685
[17] = system: Staphylococcus epidermidis M2923
Acinetobacter sp. M5949 = system: Acinetobacter sp. M5949
[18] = system: Staphylococcus hominis M2967
[19] = system: Enterococcus faecium PZAP 95
Escherichia coli M9884 = system: Escherichia coli M9884
[20] = system: Staphylococcus aureus P33
Escherichia coli PCOS 15 = system: Escherichia coli PCOS 15
[21] = system: Staphylococcus saprophyticus M4070
[22] = system: Enterococcus faecalis M6534
[23] = system: Pseudomonas aeruginosa ATCC 27853
[24] = system: Staphylococcus aureus M6784
Staphylococcus cohnii = system: Staphylococcus cohnii
[25] = system: Enterococcus faecium M2664
[26] = system: Staphylococcus aureus ATCC 25923
Acinetobacter sp. M9665 = system: Acinetobacter sp. M9665
[27] = system: Klebsiella pneumoniae M5825
Acinetobacter sp. M9013 = system: Acinetobacter sp. M9013
[28] = system: Candida albicans ATCC 37092
[29] = system: Staphylococcus aureus ATCC 29213
[30] = system: Pseudomonas aeruginosa KCTC 1637
[31] = system: Escherichia coli CCARM 1229
[32] = system: Salmonella typhimurium CCARM 8003
[33] = system: Staphylococcus epidermidis KCTC 1917
[34] = system: Staphylococcus aureus CCARM 3114
[35] = system: Escherichia coli KCTC 1682
[36] = system: Salmonella typhimurium KCTC 1926
[37] = system: Staphylococcus aureus CCARM 3089
[38] = system: Bacillus subtilis KCTC 3068
[39] = system: Staphylococcus aureus KCTC 1621
[40] = system: Escherichia coli CCARM 1238
[41] = system: Salmonella enterica subsp. enterica serovar Enteritidis ATCC 13076
[42] = system: Klebsiella pneumoniae ATCC 13883
[43] = system: Staphylococcus aureus ATCC BAA-39
[44] = system: Listeria monocytogenes ATCC 19115
[45] = system: Staphylococcus aureus ATCC 43300

SMILES: CC[C@H](C)[C@H](NC(=O)[C@H](CCCN=C(N)N)NC(=O)[C@H](CCCCN)NC(=O)[C@H](Cc1ccccc1)NC(=O)[C@H](CCC(=O)O)NC(=O)[C@H](CCCCN)NC(=O)[C@H](Cc1c[nH]c2ccccc12)NC(=O)[C@H](CCCCN)NC(=O)[C@H](CCCCN)NC(=O)[C@H](CC(C)C)NC(=O)[C@H](Cc1c[nH]c2ccccc12)NC(=O)[C@H](CCCCN)NC(=O)[C@H](CCCCN)NC(=O)[C@H](CC(C)C)NC(=O)[C@H](CC(C)C)NC(=O)CN)C(=O)N[C@H](C(=O)NCC(=O)N[C@@H](Cc1ccc(O)cc1)C(N)=O)C(C)C [GLLKKWLKKWKEFKRIVGY]
- MIC [1]: 13.2 µM (≈ 32 µg/mL)
- MIC [2]: 1.65 µM (≈ 4 µg/mL)
- MIC (Escherichia coli M5306): 1.65 µM (≈ 4 µg/mL)
- MIC [3]: 6.61 µM (≈ 16 µg/mL)
- MIC [4]: 13.2 µM (≈ 32 µg/mL)
- MIC [5]: 26.4 µM (≈ 64 µg/mL)
- MIC [6]: 3.3 µM (≈ 8 µg/mL)
- MIC [7]: 52.9 µM (≈ 128 µg/mL)
- MIC [8]: ≥ 106 µM
- MIC [9]: 3.3 µM (≈ 8 µg/mL)
- MIC (Staphylococcus warneri): 3.3 µM (≈ 8 µg/mL)
- MIC [10]: ≥ 52.9 µM
- MIC [11]: 26.4 µM (≈ 64 µg/mL)
- MIC [12]: 26.4 µM (≈ 64 µg/mL)
- MIC [13]: 13.2 µM (≈ 32 µg/mL)
- MIC [14]: 3.3 µM (≈ 8 µg/mL)
- MIC [15]: ≥ 52.9 µM
- MIC (Acinetobacter sp. M13523): 1.65 µM (≈ 4 µg/mL)
- MIC [16]: 6.61 µM (≈ 16 µg/mL)
- MIC [17]: 6.61 µM (≈ 16 µg/mL)
- MIC (Acinetobacter sp. M5949): 6.61 µM (≈ 16 µg/mL)
- MIC [18]: 3.3 µM (≈ 8 µg/mL)
- MIC [19]: 6.61 µM (≈ 16 µg/mL)
- MIC (Escherichia coli M9884): 13.2 µM (≈ 32 µg/mL)
- MIC [20]: ≥ 52.9 µM
- MIC (Escherichia coli PCOS 15): 26.4 µM (≈ 64 µg/mL)
- MIC [21]: 13.2 µM (≈ 32 µg/mL)
- MIC [22]: ≥ 106 µM
- MIC [23]: 26.4 µM (≈ 64 µg/mL)
- MIC [24]: 13.2 µM (≈ 32 µg/mL)
- MIC (Staphylococcus cohnii): 6.61 µM (≈ 16 µg/mL)
- MIC [25]: 3.3 µM (≈ 8 µg/mL)
- MIC [26]: 26.4 µM (≈ 64 µg/mL)
- MIC (Acinetobacter sp. M9665): 13.2 µM (≈ 32 µg/mL)
- MIC [27]: 3.3 µM (≈ 8 µg/mL)
- MIC (Acinetobacter sp. M9013): 3.3 µM (≈ 8 µg/mL)

SMILES: CC(C)C[C@H](NC(=O)[C@@H](N)CCCN=C(N)N)C(=O)N1CCC[C@H]1C(=O)N[C@@H](CCCN=C(N)N)C(=O)N1CCC[C@H]1C(=O)N[C@@H](CCCN=C(N)N)C(=O)N1CCC[C@H]1C(=O)N[C@@H](CCCN=C(N)N)C(=O)N1CCC[C@H]1C(=O)N[C@@H](CC(C)C)C(=O)N1CCC[C@H]1C(=O)N[C@@H](Cc1ccccc1)C(=O)N1CCC[C@H]1C(=O)N[C@@H](CCCN=C(N)N)C(=O)N1CCC[C@H]1C(=O)NCC(=O)O [RLPRPRPRPLPFPRPG]
- MIC [1]: 114 µM (≈ 218 µg/mL)
- MIC [28]: ≥ 500 µM
- MIC [29]: > 500 µM

SMILES: CC[C@H](C)[C@H](NC(=O)[C@H](C)NC(=O)[C@H](CC(C)C)NC(=O)[C@H](Cc1c[nH]c2ccccc12)NC(=O)[C@H](CC(C)C)NC(=O)[C@@H](N)CCCN=C(N)N)C(=O)NCC(=O)N[C@@H](CCCN=C(N)N)C(=O)NCC(N)=O [RLWLAIGRG]
- MIC [30]: ≥ 32 µM
- MIC [31]: 16 µM (≈ 16.6 µg/mL)
- MIC [32]: ≥ 32 µM
- MIC [33]: 4 µM (≈ 4.16 µg/mL)
- MIC [34]: ≥ 32 µM
- MIC [35]: 8 µM (≈ 8.32 µg/mL)
- MIC [36]: ≥ 32 µM
- MIC [37]: 16 µM (≈ 16.6 µg/mL)
- MIC [38]: 8 µM (≈ 8.32 µg/mL)
- MIC [39]: 16 µM (≈ 16.6 µg/mL)
- MIC [40]: 8 µM (≈ 8.32 µg/mL)

SMILES: CC[C@H](C)[C@H](NC(=O)[C@H](CCCCN)NC(=O)[C@H](CCCN=C(N)N)NC(=O)[C@H](CC(C)C)NC(=O)[C@H](Cc1ccccc1)NC(=O)[C@H](CCCN=C(N)N)NC(=O)CNC(=O)[C@H](Cc1ccccc1)NC(=O)[C@H](CCCN=C(N)N)NC(=O)CNC(=O)[C@H](CCCN=C(N)N)NC(=O)[C@H](CCC(N)=O)NC(=O)[C@@H](NC(=O)[C@@H](N)CC(C)C)C(C)C)C(=O)O [LVQRGRFGRFLRKI]
- MIC [1]: 22.6 µM and 32 µM
- MIC [41]: 16 µM (≈ 27.9 µg/mL)
- MIC [42]: 16 µM and ≥ 32 µM
- MIC [43]: ≥ 32 µM
- MIC [26]: 11.3 µM and 32 µM
- MIC [44]: 22.6 µM and ≥ 32 µM
- MIC [45]: 32 µM (≈ 55.9 µg/mL)
